{"source": "patent US20230277632A1", "about": "“MODIFIED PlySs2 LYSINS AND ANTIBIOTIC COMBINATIONS FOR USE AGAINST GRAM-POSITIVE BACTERIA” (ContraFect Corporation, priority 2020, published 2023)", "key": {"S. aureus isolates [1]": {"test_system": "S. aureus isolates", "experiment": "In vivo efficacy of vancomycin in combination with pp296, neutropenic murine thigh infection model", "settings": "24 h; for Replicate Log10 CFU/thigh data: listed as VAN", "protocol": "(§1) Study animals: Specific pathogen-free female ICR mice (average body weight 23 grams) were provided food and water ad libitum and maintained and used in accordance with National Research Council recommendations. Animals were allowed a 48-hour post-delivery acclimation period before every experiment. Mice were rendered transiently neutropenic by injection of cyclophosphamide via intraperitoneal (IP) route at a dose of 150 mg/kg of body weight at four days before bacterial inoculation and 100 mg/kg of body weight at one day before bacterial inoculation.\n(§2) Neutropenic Thigh Infection Model: Two transfers of the bacterial isolates were performed onto trypticase soy agar plates with 5% sheep blood and placed into an incubator at 37° C. for approximately 24 hours. After an 18-24 hour incubation of the second transfer, a suspension of approximately 10^7 CFU/mL was made for inoculation. Final bacterial inoculum concentrations were confirmed by serial dilution and plating techniques. Thigh infection with the test isolate was produced by intramuscular injection of 0.1 mL of the bacterial inoculum into each thigh of the mice. Antimicrobial therapy was initiated 2 hours after bacterial inoculation, as detailed below. […]\nUntreated control mice (n=3) were sacrificed just prior to antibiotic administration and 24 hours after bacterial inoculation. Animals sacrificed prior to antibiotic initiation served as 0-hour control animals, representing initial bacterial burden. […] Treatment mice (n=3/group) were sacrificed at the end of the 24 hour treatment period. After sacrifice, both thighs for each mouse were homogenized in normal saline. Serial dilutions were plated on Trypticase soy agar with 5% sheep blood and incubated for 18 to 20 hours at 37.0 to determine the CFU. Efficacy was calculated as the change in bacterial density obtained in treated mice after 24 hours compared with the numbers in the 0-hour control animals. Bacterial density represents the average CFU determined from 3 mice, each contributing 2 thighs."}, "S. aureus isolates [2]": {"test_system": "S. aureus isolates", "experiment": "Vancomycin dose-ranging, neutropenic murine thigh infection model", "type": "in vivo", "settings": "24 h", "protocol": "as §1\nas §2, with “mice.” for “mice. Antimicrobial therapy was initiated 2 hours after bacterial inoculation, as detailed below.”\nTwo hours post-bacterial inoculation, one group of mice (n=3) was sacrificed to serve as a 0 hour control, representing initial bacterial burden in the thigh, wherein bacterial burden is determined as the average CFU from 6 thighs, i.e., 2 thighs per mouse. […]"}, "S. aureus isolates [3]": {"test_system": "S. aureus isolates", "experiment": "MIC determination (broth microdilution) against 8 S. aureus isolates", "type": "cell-based", "settings": "CAMHB, unit assumed", "protocol": "Suitable methods for assessing the activity of a modified lysin polypeptide as disclosed herein are well known in the art and described in the examples. […] For example, MIC values for a modified lysin polypeptide may be determined against e.g., laboratory Staphylococcus aureus strains, in e.g., Mueller-Hinton broth or Mueller-Hinton broth supplemented with serum, such as horse serum.\nThe pp296 MICs were determined based on (1) cation-adjusted Mueller-Hinton Broth with 25% horse serum and 0.5 mM DTT (caMHB-HSD); (2) human serum (100% serum); and (3) ICR mice (100% serum). Vancomycin and daptomycin MICs of the isolate strains were determined in accordance with the broth microdilution method as outlined by CLSI. Results of the MIC determination are shown below in Table 2. The bacterial isolates were frozen at −80° C. in skim milk."}, "S. aureus": {"test_system": "S. aureus", "experiment": "pp296 dose fractionation study, neutropenic murine thigh infection model", "type": "in vivo", "settings": "vancomycin 3 mg/kg Q12h SC alone, 24 h", "protocol": "Each of the pp296 TDDs was fractionated into three regimens, i.e., one-third of the entire dose was administered via IV three times (q8h); one-half of the entire does was administered via IV two times (q12h), or the entire dose was administered via IV once daily over a 24-hour period, for a total of three groups per each TDD.\nUntreated control mice (n=3/group) were sacrificed just prior to antibiotic administration, as well as 24 hours later. Animals sacrificed prior to antibiotic administration served as 0-hour control animals, representing initial bacterial burden. The 24-hour control animals received sterile normal saline in the same volume and schedule as the most frequent active drug regimen. […] After the 24-hour treatment period, all animals were euthanized and thighs were cultured quantitatively as described above. The change in bacterial density was calculated for each of the dosing regimen. Comparisons were made between the different regimens of the same total daily dose on bacterial burdens at 24 hours using one-way Analysis of Variance (ANOVA) test followed by Tukey's test where the P value was 0.05."}}, "note": "Several values for one entry are separate records, joined by “and”; a condition that tells them apart may be missing. Equal entries are not always repeated.", "data": [{"compound": "CN[C@H](CC(C)C)C(=O)N[C@H]1C(=O)N[C@@H](CC(N)=O)C(=O)N[C@H]2C(=O)N[C@H]3C(=O)N[C@H](C(=O)N[C@H](C(=O)O)c4cc(O)cc(O)c4-c4cc3ccc4O)[C@H](O)c3ccc(c(Cl)c3)Oc3cc2cc(c3O[C@@H]2O[C@H](CO)[C@@H](O)[C@H](O)[C@H]2O[C@H]2C[C@](C)(N)[C@H](O)[C@H](C)O2)Oc2ccc(cc2Cl)[C@H]1O", "note": "[Vancomycin, vancomycin]", "values": [{"measurement": "Replicate Log10 CFU/thigh data", "setting": "S. aureus isolates [1]; ATCC2921, VAN 3 mg/kg alone", "value": "4.59 Log10 CFU/thigh and 4.96 Log10 CFU/thigh and 7.87 Log10 CFU/thigh and 5.18 Log10 CFU/thigh and 7.18 Log10 CFU/thigh and 6.03 Log10 CFU/thigh"}, {"measurement": "Replicate Log10 CFU/thigh data", "setting": "S. aureus isolates [1]; CAIRD426, VAN 1.5 mg/kg alone", "value": "6.89 Log10 CFU/thigh and 6.51 Log10 CFU/thigh and 7.97 Log10 CFU/thigh and 8.04 Log10 CFU/thigh"}, {"measurement": "Replicate Log10 CFU/thigh data", "setting": "S. aureus isolates [1]; CAIRD426, VAN 3 mg/kg alone, Run #1", "value": "4.81 Log10 CFU/thigh and 7.53 Log10 CFU/thigh and 6.53 Log10 CFU/thigh"}, {"measurement": "Replicate Log10 CFU/thigh data", "setting": "S. aureus isolates [1]; CAIRD426, VAN 3 mg/kg alone, Run #2", "value": "7.82 Log10 CFU/thigh and 8.21 Log10 CFU/thigh and 7.74 Log10 CFU/thigh and 7.40 Log10 CFU/thigh and 7.47 Log10 CFU/thigh and 7.20 Log10 CFU/thigh"}, {"measurement": "Replicate Log10 CFU/thigh data", "setting": "S. aureus isolates [1]; HPV107, VAN 1.5 mg/kg alone", "value": "8.44 Log10 CFU/thigh and 8.20 Log10 CFU/thigh and 8.00 Log10 CFU/thigh and 7.87 Log10 CFU/thigh and 8.32 Log10 CFU/thigh"}, {"measurement": "Replicate Log10 CFU/thigh data", "setting": "S. aureus isolates [1]; HPV107, VAN 3 mg/kg alone, Run #1", "value": "7.50 Log10 CFU/thigh and 7.81 Log10 CFU/thigh and 7.24 Log10 CFU/thigh and 7.40 Log10 CFU/thigh and 7.36 Log10 CFU/thigh and 6.51 Log10 CFU/thigh"}, {"measurement": "Replicate Log10 CFU/thigh data", "setting": "S. aureus isolates [1]; HPV107, VAN 3 mg/kg alone, Run #2", "value": "7.49 Log10 CFU/thigh and 7.73 Log10 CFU/thigh and 5.45 Log10 CFU/thigh"}, {"measurement": "Replicate Log10 CFU/thigh data", "setting": "S. aureus isolates [1]; JMI227, VAN 3 mg/kg alone", "value": "7.50 Log10 CFU/thigh and 6.17 Log10 CFU/thigh and 8.04 Log10 CFU/thigh and 8.21 Log10 CFU/thigh and 8.47 Log10 CFU/thigh and 7.51 Log10 CFU/thigh"}, {"measurement": "Replicate Log10 CFU/thigh data", "setting": "S. aureus isolates [1]; JMI4789, VAN 3 mg/kg alone", "value": "8.41 Log10 CFU/thigh and 8.01 Log10 CFU/thigh and 6.93 Log10 CFU/thigh (2×) and 4.92 Log10 CFU/thigh"}, {"measurement": "Replicate Log10 CFU/thigh data", "setting": "S. aureus isolates [1]; NRS100, VAN 1.5 mg/kg alone", "value": "6.30 Log10 CFU/thigh and 4.89 Log10 CFU/thigh and 4.85 Log10 CFU/thigh and 4.30 Log10 CFU/thigh and 4.69 Log10 CFU/thigh and 6.73 Log10 CFU/thigh"}, {"measurement": "Replicate Log10 CFU/thigh data", "setting": "S. aureus isolates [1]; NRS100, VAN 3 mg/kg alone, Run #1", "value": "4.58 Log10 CFU/thigh (2×) and 4.90 Log10 CFU/thigh and 4.89 Log10 CFU/thigh and 4.48 Log10 CFU/thigh and 4.56 Log10 CFU/thigh"}, {"measurement": "Replicate Log10 CFU/thigh data", "setting": "S. aureus isolates [1]; NRS100, VAN 3 mg/kg alone, Run #2", "value": "4.75 Log10 CFU/thigh and 6.89 Log10 CFU/thigh and 4.70 Log10 CFU/thigh and 4.58 Log10 CFU/thigh and 4.83 Log10 CFU/thigh and 6.46 Log10 CFU/thigh"}, {"measurement": "Replicate Log10 CFU/thigh data", "setting": "S. aureus isolates [1]; NRS123, VAN 3 mg/kg alone", "value": "7.17 Log10 CFU/thigh and 7.02 Log10 CFU/thigh and 7.77 Log10 CFU/thigh and 8.38 Log10 CFU/thigh and 8.32 Log10 CFU/thigh and 8.01 Log10 CFU/thigh"}, {"measurement": "Replicate Log10 CFU/thigh data", "setting": "S. aureus isolates [1]; NRS217, VAN 1.5 mg/kg alone", "value": "7.60 Log10 CFU/thigh and 8.28 Log10 CFU/thigh and 8.26 Log10 CFU/thigh and 7.90 Log10 CFU/thigh and 6.43 Log10 CFU/thigh and 7.61 Log10 CFU/thigh"}, {"measurement": "Replicate Log10 CFU/thigh data", "setting": "S. aureus isolates [1]; NRS217, VAN 3 mg/kg alone, Run #1", "value": "6.66 Log10 CFU/thigh and 6.70 Log10 CFU/thigh and 7.23 Log10 CFU/thigh and 6.68 Log10 CFU/thigh and 7.60 Log10 CFU/thigh and 6.55 Log10 CFU/thigh"}, {"measurement": "Replicate Log10 CFU/thigh data", "setting": "S. aureus isolates [1]; NRS217, VAN 3 mg/kg alone, Run #2", "value": "7.06 Log10 CFU/thigh and 7.38 Log10 CFU/thigh and 5.26 Log10 CFU/thigh and 4.73 Log10 CFU/thigh and 6.82 Log10 CFU/thigh"}, {"measurement": "Replicate Log10 CFU/thigh data", "setting": "S. aureus isolates [1]; isolate HPV107, VAN 5 mg/kg q12h SC alone", "value": "4.73 Log10 CFU/thigh and 8.28 Log10 CFU/thigh and 4.75 Log10 CFU/thigh and 4.88 Log10 CFU/thigh"}, {"measurement": "Replicate Log10 CFU/thigh data", "setting": "S. aureus isolates [1]; isolate NRS100, VAN 5 mg/kg q12h SC alone", "value": "4.68 Log10 CFU/thigh (2×) and 4.78 Log10 CFU/thigh (2×) and 4.56 Log10 CFU/thigh and 4.73 Log10 CFU/thigh"}, {"measurement": "Replicate Log10 CFU/thigh data", "setting": "S. aureus isolates [1]; isolate NRS217, VAN 5 mg/kg q12h SC alone", "value": "4.64 Log10 CFU/thigh and 6.13 Log10 CFU/thigh and 4.76 Log10 CFU/thigh and 4.56 Log10 CFU/thigh and 4.75 Log10 CFU/thigh"}, {"measurement": "average bacterial growth vs starting inoculum", "setting": "S. aureus isolates [1]; vancomycin 1.5 mg/kg Q12h SC alone, 4 isolates", "value": "2.75±0.52", "unit": "log10 CFU/thigh"}, {"measurement": "average bacterial reduction vs starting inoculum", "setting": "S. aureus isolates [1]; vancomycin 5 mg/kg q12h SC alone, 4 isolates", "value": "−0.38±1.10", "unit": "log10 CFU/thigh"}, {"measurement": "bacterial burden reduction vs 0-hour controls", "setting": "S. aureus isolates [2]; upper end of dose-response, vancomycin 3.125-25 mg/kg q12h SC, all isolates", "value": "−1.15±0.40", "unit": "log10 CFU/thigh"}, {"measurement": "mean bacterial burden change vs 0-hour controls", "setting": "S. aureus isolates [2]; vancomycin 3.125 mg/kg q12h SC, mean of 8 isolates", "value": "−0.05±1.16", "unit": "log10 CFU/thigh"}, {"measurement": "MIC Vancomycin (CAMHB)", "setting": "S. aureus isolates [3]; ATCC 29213 MSSA", "value": 1, "unit": "µg/mL"}, {"measurement": "MIC Vancomycin (CAMHB)", "setting": "S. aureus isolates [3]; CAIRD426 MRSA", "value": 1, "unit": "µg/mL"}, {"measurement": "MIC Vancomycin (CAMHB)", "setting": "S. aureus isolates [3]; HPV107 MRSA", "value": 1, "unit": "µg/mL"}, {"measurement": "MIC Vancomycin (CAMHB)", "setting": "S. aureus isolates [3]; JMI227 MRSA", "value": 1, "unit": "µg/mL"}, {"measurement": "MIC Vancomycin (CAMHB)", "setting": "S. aureus isolates [3]; JMI4789 MRSA", "value": 1, "unit": "µg/mL"}, {"measurement": "MIC Vancomycin (CAMHB)", "setting": "S. aureus isolates [3]; NRS100 (COL) MRSA", "value": 1, "unit": "µg/mL"}, {"measurement": "MIC Vancomycin (CAMHB)", "setting": "S. aureus isolates [3]; NRS123 (MW2) MRSA", "value": 1, "unit": "µg/mL"}, {"measurement": "MIC Vancomycin (CAMHB)", "setting": "S. aureus isolates [3]; NRS271 MRSA/LRSA", "value": 1, "unit": "µg/mL"}, {"measurement": "bacterial burden vs 0-hour control mice", "setting": "S. aureus", "value": "0.41±0.62", "unit": "log10 CFU/thigh"}]}]}
